Legend:
[1] = test system: Bacillus subtilis ATCC 6633; assay: agar diffusion test with impregnated cellulose discs; type: cell-based; conditions: incl. 6 mm disc
[2] = test system: Listeria innocua CECT 4030; assay: as above; type: cell-based; conditions: incl. 6 mm disc
[3] = test system: Salmonella typhimurium ATCC 13311; assay: as above; type: cell-based; conditions: incl. 6 mm disc
Leveillula taurica = assay: control of powdery mildew in peppers grown in greenhouses; type: in vivo; conditions: doses of 1000 and 2000 ppm; peppers in greenhouse; reference Ciproconazol/Triadimenol
Text: Some of these tests were especially significant, such as the result against powdery mildew in peppers grown in greenhouses in Almeria. The relevance of the data obtained is based on the scarcity of effective and non-synthetic systems that control this disease (caused by Leveillula taurica).
In the case of this test, spray guns were used, via the greenhouse irrigation system, to apply solutions of 1000 ppm and 2000 ppm of PTS and PTSO, with a nutrient broth volume of 20, 30, 40 l/parcel, depending on the application. These solutions were distributed in parcels of 4 rows, located in the zone of the greenhouse with a greater incidence of powdery mildew, while a reference product was applied in the rest of the warehouse: Ciproconazol (Caddy 10 WG at 10 gr/100 l) for the first and second application, Triadimenol (Bayfidan 25 EC at 25 ml/100 l) for the third application and Ciproconazol/Triadimenol for the final application.

Penicillium digitatum = assay: post-harvest rotting of inoculated oranges (Navelina), immersion treatment; type: in vivo
Description: (§1) This example considers the effectiveness of the active natural principles PTS and PTSO in two different doses for the control of post-harvest rotting of oranges ([…] variety), caused by controlled artificial inoculation with the fungi Penicillium digitatum, Penicillium expansum, Phytophthora citrophthora and Geotrichum candidum, the principal pathogens of this fruit. The inoculation of the oranges was carried out with suspensions of spores of the different wild fungal strains selected, according to the methodology described below. The first step was the isolation and identification of the fungal strains used in the study. The strains of filamentous fungi used in these tests (Penicillium digitatum, Penicillium italicum and Phytophthora citrophthora) were isolated from oranges affected by rot. In these isolation processes, it was not possible to detect any strain belonging to Geotrichum candidum, as a result of which it was necessary to obtain the latter substance from the Spanish Collection of Standard Cultures, where it is identified by reference CECT 1102. […] To promote the implantation of the inoculum of Geotrichum candidum, 200 ppm of cyclohexamide was added to the inoculum prior to its inoculation. […] The assessment of the effectiveness of PTS and PTSO comprised counting of the number of fruits affected by rot in the inoculated zone, to determine the percentage of fruit affected for each treatment and fungus inoculated, and expressing this effectiveness as a percentage of reduction of the affected fruit.

Penicillium italicum = assay: as above; type: in vivo
Description: as §1

[4] = test system: Fungi mixture (P. expansum, P. italicum, P. digitatum and A. Alternata); assay: disinfection of artificially contaminated containers by drencher; conditions: drencher 30 seconds
Description: A test of the disinfection of containers (fruit boxes and crates) was conducted in which a level of artificial contamination was created by means of controlled inoculation, with the objective of determining optimum doses of application to achieve a satisfactory disinfection. First the containers (made of wood and plastic) were disinfected with sodium hypochlorite, and they were then artificially contaminated via controlled inoculations with different fungi characteristic of the fruit and vegetable processing sector. For this purpose, isolated wild strains were used which, after sporulation, were collected to create a suspension of mixed spores of various fungi (Penicillium expansum, Penicillium italicum, Penicillium digitarum and Alternario alternata) and, separately in simultaneous tests (as a result of its higher rate of growth and its invasive character), a suspension of Rhizopus stolonifer. […] After this fogging, the containers were allowed to dry. The containers were then sampled to determine the level of initial contamination achieved (by means of contact plates containing Rose Bengal agar). The containers were then treated in a pilot line […]. The hold time of the containers under the showers was 30 seconds, and the test doses were 750 ppm and 1050 ppm for PTS and 2000 ppm and 5000 ppm in the case of PTSO. After exiting the showers, the treated containers were allowed to dry, and were again sampled using contact plates with Rose Bengal agar to determine the final level of contamination. The sampling unit was 3 containers and 3 plates per repetition.

[5] = test system: Fungi mixture (P. expansum, P. italicum, P. digitatum and A. Alternata); assay: disinfection of containers stored inside the rooms by fogging
Rhizopus stolonifer = assay: as above
fungal population = assay: disinfection by drencher of naturally contaminated containers of a citrus fruit processing plant
[6] = test system: the most characteristic diseases that affect these crops; assay: in vivo tests against pre-harvest diseases in various crops (Table 7); conditions: pre-harvest diseases and pathogens listed in Table 7
Description: B. Likewise, numerous tests were conducted “in vivo” to determine the effectiveness of the products for pre- and post-harvest treatments, and also as disinfectant agents for agricultural soils and facilities in the food processing industries.
In post-harvest treatments, tests were conducted in strawberries, citrus fruits, stone fruits and tropical fruits. Tests were also conducted on vegetable plants in a greenhouse (tomatoes, melons, zucchini, peppers, cucumbers and green beans).

[7] = test system: plants inoculated with mycorrhizal fungi; conditions: in vivo
[8] = 1600 ppm, 5 days of treatment at 20° C., title: treated with PTSO
[9] = 1600 ppm, 7 days of treatment at 20° C., title: treated with PTSO
[10] = 2500 ppm, 5 days of treatment at 20° C., title: treated with PTSO
[11] = 2500 ppm, 7 days of treatment at 20° C., title: treated with PTSO
[12] = 1600 ppm, 4 days at 20° C., title: treated with PTSO
[13] = 2500 ppm, 4 days at 20° C., title: treated with PTSO

CCCS[S+]([O-])CCC (stereo not drawn) [PTS, Propyl Propyl Thiosulfinate]
diameter of the microbial inhibition halo ([1]; 60 ppm): 32 mm
diameter of the microbial inhibition halo ([1]; 125 ppm): 35 mm
diameter of the microbial inhibition halo ([1]; 250 ppm): 40 mm
diameter of the microbial inhibition halo ([1]; 500 ppm): 55 mm
diameter of the microbial inhibition halo ([1]; 1000 ppm): 55 mm
diameter of the microbial inhibition halo ([2]; 60 ppm): 13 mm
diameter of the microbial inhibition halo ([2]; 125 ppm): 23 mm
diameter of the microbial inhibition halo ([2]; 250 ppm): 32 mm
diameter of the microbial inhibition halo ([2]; 500 ppm): 37 mm
diameter of the microbial inhibition halo ([2]; 1000 ppm): 40 mm
diameter of the microbial inhibition halo ([3]; 60 ppm): 11 mm
diameter of the microbial inhibition halo ([3]; 125 ppm): 15 mm
diameter of the microbial inhibition halo ([3]; 250 ppm): 22 mm
diameter of the microbial inhibition halo ([3]; 500 ppm): 23 mm
diameter of the microbial inhibition halo ([3]; 1000 ppm): 25 mm
control of powdery mildew, as % of the effectiveness of the reference product (Leveillula taurica): 92%
% Reduction (Penicillium digitatum; [8]): 72%
% of fruit affected (Penicillium digitatum; [8]): 28%
% Reduction (Penicillium digitatum; [9]): 40%
% of fruit affected (Penicillium digitatum; [9]): 60%
% Reduction (Penicillium digitatum; 1600 ppm, 14 days at 20° C.): 0%
% of fruit affected (Penicillium digitatum; 1600 ppm, 14 days at 20° C.): 100%
% Reduction (Penicillium digitatum; 1666 ppm, 7 days at 20° C.): 23%
% of fruit affected (Penicillium digitatum; 1666 ppm, 7 days at 20° C.): 77%
% Reduction (Penicillium digitatum; [10]): 85%
% of fruit affected (Penicillium digitatum; [10]): 15%
% Reduction (Penicillium digitatum; 2500 ppm, 7 days at 20° C.): 53%
% of fruit affected (Penicillium digitatum; 2500 ppm, 7 days at 20° C.): 47%
% Reduction (Penicillium digitatum; [11]): 57%
% of fruit affected (Penicillium digitatum; [11]): 43%
% of fruit affected (Penicillium digitatum; 2500 ppm, 14 days at 20° C.): 36%
% Reduction (Penicillium italicum; [12]): 80%
% of fruit affected (Penicillium italicum; [12]): 20%
% Reduction (Penicillium italicum; 1600 ppm, 14 days at 20° C.): 72%
% of fruit affected (Penicillium italicum; 1600 ppm, 14 days at 20° C.): 28%
% of fruit affected (Penicillium italicum; 1666 ppm, 7 days at 20° C.): 0%
% Reduction (Penicillium italicum; [13]): 85%
% of fruit affected (Penicillium italicum; [13]): 15%
% Reduction (Penicillium italicum; 2500 ppm, 7 days at 20° C.): 100%
% of fruit affected (Penicillium italicum; 2500 ppm, 7 days at 20° C.): 0%
% Reduction (Penicillium italicum; 2500 ppm, 14 days at 20° C.): 85%
% of fruit affected (Penicillium italicum; 2500 ppm, 14 days at 20° C.): 15%
Reduction of the population (%) ([4]; 750 ppm, Plastic container): 81%
Reduction of the population (%) ([4]; 750 ppm, Wood container): 85%
Reduction of the population (%) ([4]; 1050 ppm, Plastic container): 87%
Reduction of the population (%) ([4]; 1050 ppm, Wood container): 85%
Reduction of the population (%) ([5]; 750 ppm, Plastic container): 97%
Reduction of the population (%) ([5]; 750 ppm, Wood container): 97%
Reduction of the population (%) ([5]; 1050 ppm, Plastic container): 98%
Reduction of the population (%) ([5]; 1050 ppm, Wood container): 97%
Reduction of the population (%) (Rhizopus stolonifer; 750 ppm, Plastic container): 36%
Reduction of the population (%) (Rhizopus stolonifer; 1050 ppm, Plastic container): 27%
Reduction of the population (%) (Rhizopus stolonifer; 1050 ppm, Wood container): 26%
Reduction of the fungal population (%) (fungal population; PTS 750 mm, Bottom of the pallet, Beginning of bath): 87%
Reduction of the fungal population (%) (fungal population; PTS 750 mm, Bottom of the pallet, End of bath): 79%
Reduction of the fungal population (%) (fungal population; PTS 750 mm, Side of the pallet, Beginning of bath): 97%
Reduction of the fungal population (%) (fungal population; PTS 750 mm, Side of the pallet, End of bath): 100%
control capability against the most characteristic diseases of the crops (in words) [6]: high control capability
phytotoxicity to the plant [7]: did not suffer phytotoxicity

CCCSS(=O)(=O)CCC [PTSO, Propyl Propyl Thiosulfonate]
diameter of the microbial inhibition halo ([1]; 60 ppm): 27 mm
diameter of the microbial inhibition halo ([1]; 125 ppm): 36 mm
diameter of the microbial inhibition halo ([1]; 250 ppm): 42 mm
diameter of the microbial inhibition halo ([1]; 500 ppm): 50 mm
diameter of the microbial inhibition halo ([1]; 1000 ppm): 68 mm
diameter of the microbial inhibition halo ([2]; 60 ppm): 13 mm
diameter of the microbial inhibition halo ([2]; 125 ppm): 20 mm
diameter of the microbial inhibition halo ([2]; 250 ppm): 35 mm
diameter of the microbial inhibition halo ([2]; 500 ppm): 43 mm
diameter of the microbial inhibition halo ([2]; 1000 ppm): 52 mm
diameter of the microbial inhibition halo ([3]; 60 ppm): 16 mm
diameter of the microbial inhibition halo ([3]; 125 ppm): 17 mm
diameter of the microbial inhibition halo ([3]; 250 ppm): 25 mm
diameter of the microbial inhibition halo ([3]; 500 ppm): 25 mm
diameter of the microbial inhibition halo ([3]; 1000 ppm): 27 mm
control of powdery mildew, as % of the effectiveness of the reference product (Leveillula taurica): slightly lower
% Reduction (Penicillium digitatum; [8]): 72%
% Reduction (Penicillium digitatum; [9]): 40%
% Reduction (Penicillium digitatum; [10]): 85%
% Reduction (Penicillium digitatum; [11]): 57%
% Reduction (Penicillium italicum; [12]): 80%
% Reduction (Penicillium italicum; [13]): 85%
Reduction of the population (%) ([4]; 2000 ppm, Plastic container): 93%
Reduction of the population (%) ([4]; 2000 ppm, Wood container): 98%
Reduction of the population (%) ([4]; 5000 ppm, Plastic container): 93%
Reduction of the population (%) ([4]; 5000 ppm, Wood container): 99%
Reduction of the population (%) ([5]; 2000 ppm, Plastic container): 94%
Reduction of the population (%) ([5]; 2000 ppm, Wood container): 67%
Reduction of the population (%) ([5]; 5000 ppm, Plastic container): 92%
Reduction of the population (%) ([5]; 5000 ppm, Wood container): 70%
Reduction of the population (%) (Rhizopus stolonifer; 2000 ppm, Plastic container): 77%
Reduction of the population (%) (Rhizopus stolonifer; 2000 ppm, Wood container): 78%
Reduction of the population (%) (Rhizopus stolonifer; 5000 ppm, Plastic container): 71%
Reduction of the population (%) (Rhizopus stolonifer; 5000 ppm, Wood container): 56%
Reduction of the fungal population (%) (fungal population; PTSO 2000 ppm, Bottom of the pallet, Beginning of bath): 93%
Reduction of the fungal population (%) (fungal population; PTSO 2000 ppm, Bottom of the pallet, End of bath): 96%
Reduction of the fungal population (%) (fungal population; PTSO 2000 ppm, Side of the pallet, Beginning of bath): 100%
Reduction of the fungal population (%) (fungal population; PTSO 2000 ppm, Side of the pallet, End of bath): 87%
control capability against the most characteristic diseases of the crops (in words) [6]: high control capability
phytotoxicity to the plant [7]: did not suffer phytotoxicity
